From patent US20090118135A1, “METHODS AND COMPOUNDS FOR REGULATING APOPTOSIS” (The Burnham Institute, priority 2007, published 2009)
Values joined by “and” are separate entries in the source; they are usually repeats but may differ in a detail not shown here. Equal entries are not always repeated. Where two headings read alike, the source gives them in different places.

How the values were obtained:
[1] = biological target: T1, GST-Bcl-B (Homo sapiens, UniProt Q9HD36); assay: biochemical
T1 sequence (Q9HD36 1-182 limits assumed): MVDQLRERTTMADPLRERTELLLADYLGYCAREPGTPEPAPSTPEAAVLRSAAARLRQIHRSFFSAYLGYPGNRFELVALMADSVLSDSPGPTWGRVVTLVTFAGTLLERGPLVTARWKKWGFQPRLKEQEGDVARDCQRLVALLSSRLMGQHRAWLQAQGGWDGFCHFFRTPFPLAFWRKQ

[2] = biological target: T1, GST-Bcl-B; assay: Bcl-B/FITC-TR3-r8 fluorescence polarization competition (displacement) assay, HTS and dose-response; settings: for Bcl-B H Coefficient: Hill coefficient of Bcl-B dose-response curve
[3] = LOPAC1280 library primary screen
[4] = LOPAC1280 library, fluorescence intensity normalized to plate negative controls
[5] = read-out: Result Value (% Inhibition)
[6] = Table 8, NCI Structural library, Binding Assay, FP, Concentration 0.02 uM
[7] = read-out: Result Value (Result Type % Inhibition), BCL-b/TR3
[8] = Table 7, NCI Mechanistic library, Binding Assay, FP, Concentration 0.02 uM

O=C(O)c1cccc(-c2ccc(/C=N/Nc3ccc([N+](=O)[O-])cn3)o2)c1 [Compound 5908920]
IC50 [1]: 9.64 µM | Bcl-B H Coefficient [2]: 0.6738

O=C1C=CC2=C3Oc4c(ccc5cc(O)ccc45)C(c4ccccc4C(=O)O)C3C=CC2=C1 (stereo not drawn) [Compound 5466725]
IC50 [1]: 1.68 µM | Bcl-B H Coefficient [2]: 3.03

Cn1c(=O)cc2c3c(c(Nc4ccc(C=O)cc4)ccc31)C(=O)c1ccccc1-2 [Compound 5719776]
IC50 [1]: 8.04 µM | Bcl-B H Coefficient [2]: 2.489

O=C(O)c1ccc2c(c1)C1C=CCC1C(c1cccc([N+](=O)[O-])c1)N2 (stereo not drawn) [Compound 5475298]
IC50 [1]: 1.75 µM | Bcl-B H Coefficient [2]: 1.336

Nc1ccc(S(=O)(=O)O)c2cccc(O)c12 [Compound 5265894]
IC50 [1]: 1.05 µM | Bcl-B H Coefficient [2]: 2.075

Oc1cccc(/C=N/C2=C(c3ccco3)N=C3C=CC=CC32)c1 (stereo not drawn) [Compound 5612880]
IC50 [1]: 9.1 µM and 9.07 µM | Bcl-B H Coefficient [2]: 0.5836

CN(C)c1ccc(NC(=O)/C=C\C(=O)O)cc1 [Compound 5374579]
IC50 [1]: 20.4 µM | Bcl-B H Coefficient [2]: 2.167

CN1CCN(CN2C(=O)/C(=N\NC(=O)CSc3nc4ccccc4s3)c3ccccc32)CC1 [Compound 6062681]
IC50 [1]: 12.9 µM | Bcl-B H Coefficient [2]: 2.531

Nc1n[nH]c2ncc3cc4ccccc4nc3c12 [Compound 6051011]
IC50 [1]: 3.74 µM and 2.89 µM | Bcl-B H Coefficient [2]: 2.36

O=C1C=CC(=O)C(/C(=C/NCc2ccccc2)[N+](=O)[O-])=C1 [Compound 5261378]
IC50 [1]: 5.7 µM | Bcl-B H Coefficient [2]: 3.214

Cc1ccc(-c2cc(C(=O)O)c3cc(Br)ccc3n2)o1 [Compound 6131498]
IC50 [1]: 16.5 µM | Bcl-B H Coefficient [2]: 1.896

CCOc1ccc(/C=C(/NC(=O)c2ccc(C)cc2)C(=O)NCCO)cc1 [Compound 5650022]
IC50 [1]: 13.3 µM | Bcl-B H Coefficient [2]: 1.428

O=C(O)c1cccc2c1NC(c1ccc([N+](=O)[O-])cc1)C1CC=CC21 (stereo not drawn) [Compound 5585430]
IC50 [1]: 5.41 µM | Bcl-B H Coefficient [2]: 1.735

COc1ccccc1NC(=O)C1=C(C)NC(SCC(=O)c2ccc(Br)cc2)=C(C#N)C1c1ccco1 (stereo not drawn) [Compound 5570547]
IC50 [1]: 6.24 µM | Bcl-B H Coefficient [2]: 18.57

O=C(O)C1Nc2ccc3ccccc3c2C2C=CCC12 (stereo not drawn) [Compound 5657743]
IC50 [1]: 7.15 µM | Bcl-B H Coefficient [2]: 3.005

Cc1ccc2oc3cc(NCCCN(C)C)c4c(=O)c5ccccc5c(=O)c4c3[nH]c2c1 [Compound 5468863]
IC50 [1]: 0.673 µM | Bcl-B H Coefficient [2]: 1.907

O=C(O)C1Nc2c(C(=O)N3CCCC3)cccc2C2C=CCC12 (stereo not drawn) [Compound 5947449]
IC50 [1]: 4.95 µM | Bcl-B H Coefficient [2]: 1.761

O=C(O)c1ccc([N+](=O)[O-])c2c1NC(c1ccccc1)C1CC=CC21 (stereo not drawn) [Compound 5853021]
IC50 [1]: 3.92 µM | Bcl-B H Coefficient [2]: 2.481

Cc1cc(C)nc(NC(=N)Nc2ccc(N)cc2)n1 [Compound 5805360]
IC50 [1]: 5.38 µM | Bcl-B H Coefficient [2]: 1.878

COc1cc(N)ccc1-n1c(C)ccc1C [Compound 5953790]
IC50 [1]: 32.9 µM | Bcl-B H Coefficient [2]: 2.719

COc1ccc(Nc2ccc(N)cc2)cc1 [Compound 5529774]
IC50 [1]: 7.22 µM | Bcl-B H Coefficient [2]: 2.718

Cc1ccc(C)n1-c1ccc(OCC(=O)O)cc1 [Compound 5988031]
IC50 [1]: 8.75 µM | Bcl-B H Coefficient [2]: 0.6411

O=C1NN(c2ccc(F)c(Cl)c2)C(=O)/C1=C\c1ccco1 [Compound 5837788]
IC50 [1]: 33.4 µM | Bcl-B H Coefficient [2]: 1.772

CC(=O)c1cc(C#N)c(SCC(=O)c2ccc(O)c(O)c2)nc1C [Compound 6033363]
IC50 [1]: 11 µM | Bcl-B H Coefficient [2]: 2.08

O=C(O)C1C2CC=CC2c2cc(Oc3ccccc3)cc3c2N1CC1CC=CC31 (stereo not drawn) [Compound 5840196]
IC50 [1]: 4.13 µM | Bcl-B H Coefficient [2]: 2.774

Cc1ccc(C)n1-c1ccccc1C(=O)O [Compound 5959185]
IC50 [1]: 0.621 µM | Bcl-B H Coefficient [2]: 2.868

C=CCN1C(=O)NC(=O)/C(=C/c2cccn2-c2cccc([N+](=O)[O-])c2)C1=O [Compound 5987504]
IC50 ([2]; Bcl-B IC50 (g/L)): 5.59 µM | IC50 ([2]; Bcl-B IC50 (uM)): 5.36 µM | Bcl-B H Coefficient [2]: 1.773

Cc1cc(I)c2c(c1)C1C=CCC1C(C(=O)O)N2 (stereo not drawn) [Compound 6048134]
IC50 [1]: 20.7 µM | Bcl-B H Coefficient [2]: 1.406

N#C/C(=C\c1ccc(O)c(O)c1)C(=O)c1ccc(O)c(O)c1 [T 7822]
Is Hit [2, 3]: Yes | F Ratio [2, 4]: 0.1036 | inhibition at 0.02 µM [2, 5]: 61.7%

Cc1ccc(C(=O)c2coc3c2C(=O)C(=O)C(Cl)=C3Cl)cc1 [Compound 5169132]
IC50 [1]: 6.17 µM | Bcl-B H Coefficient [2]: 1.432

Cc1c(Cl)ccc2c1NC(C(=O)O)C1CC=CC21 (stereo not drawn) [Compound 5659221]
IC50 [1]: 5.21 µM | Bcl-B H Coefficient [2]: 0.6773

Nc1c(S(=O)(=O)O)cc(Nc2ccc(Nc3nc(Cl)nc(Nc4ccc(S(=O)(=O)O)cc4)n3)c(S(=O)(=O)O)c2)c2c1C(=O)c1ccccc1C2=O [Compound R-115]
Is Hit [2, 3]: Yes | F Ratio [2, 4]: 0.1652 | inhibition at 0.02 µM [2, 5]: 80.8%

CN(C)C1C(O)=C(C(N)=O)C(=O)C2(O)C(O)=C3C(=O)c4c(O)cccc4C(C)(O)C3CC12.CS(=O)(=O)O (stereo not drawn) [Compound 69343]
F Ratio [2, 6]: 0.3746 | Is Hit [2, 6]: Yes | inhibition at 0.02 µM [2, 7]: 93.4%

O=C1C=C(N2CCNCC2)C(=O)c2c(O)ccc(O)c21 [Compound 658144]
Is Hit [2, 8]: Yes

NC(=O)OCC1=C(COC(N)=O)C(=O)c2c(O)ccc(O)c2C1=O [Compound 224124]
F Ratio [2, 8]: 1.1456 | Is Hit [2, 8]: Yes | inhibition at 0.02 µM [2, 7]: 145%

COc1ccc2c(NCCCCCCNc3c4ccccc4nc4cc(OC)ccc34)c3ccccc3nc2c1 [Compound 260610]
F Ratio [2, 8]: 0.269 | Is Hit [2, 8]: Yes | inhibition at 0.02 µM [2, 7]: 53.3%

O=C1C(=Cc2cn(Cc3ccc(Cl)cc3)c3ccccc23)C(=O)c2ccccc21 [Compound 5603089]
IC50 [1]: 14.4 µM | Bcl-B H Coefficient [2]: 1.917

O=C1c2ccccc2C(=O)c2c(O)c(O)cc(O)c21 [Compound 10447]
F Ratio [2, 8]: 0.5532 | Is Hit [2, 8]: Yes | inhibition at 0.02 µM [2, 7]: 146%

CN(C)CCN1C(=O)c2cccc3cc(N)cc(c23)C1=O [Compound 308847]
F Ratio [2, 8]: 0.6345 | Is Hit [2, 8]: Yes | inhibition at 0.02 µM ([2]; read-out: Result Value (Result Type % Inhibition), BCL-b/TR3, Table 7, NCI Mechanistic library, Binding Assay, FP, Concentration 0.02 uM): 87.6%

NC(Cc1cc(O)c(O)cc1O)C(=O)O (stereo not drawn) [H 2380]
F Ratio [2]: 0.06315 | Is Hit [2]: Yes | inhibition at 0.02 µM [2, 5]: 136%

O=C(O)c1cccc2c1NC(c1cccc(Cl)c1Cl)C1CC=CC21 (stereo not drawn) [Compound 6048905]
IC50 [1]: 2.57 µM and 2.67 µM | Bcl-B H Coefficient [2]: 2.809

Oc1c(C(O)(c2ccccc2)c2ccc3ccccc3c2O)ccc2ccccc12 [Compound 13984]
F Ratio [2, 6]: 0.7704 | Is Hit [2, 6]: Yes | inhibition at 0.02 µM [2, 7]: 87%

O=S(=O)(O)c1cc(/N=N/c2cccc3ccccc23)c(O)c2ncccc12 [Compound 148354]
F Ratio [2, 6]: 0.07045 | Is Hit [2, 6]: Yes | inhibition at 0.02 µM [2, 7]: 102%

COc1cc(C2Nc3ccc4ccccc4c3C3=C2C(=O)CC(C)(C)C3)c(Br)cc1O (stereo not drawn) [Compound 5660965]
IC50 [1]: 13.1 µM | Bcl-B H Coefficient [2]: 1.507

Cc1nn(-c2ccc(S(=O)(=O)O)cc2)c(O)c1/N=N/c1ccc(-c2ccc(/N=N/c3ccc4c(S(=O)(=O)O)cc(S(=O)(=O)O)c(N)c4c3O)c(O)c2)cc1O [Compound 306711]
F Ratio [2, 6]: 0.08966 | Is Hit [2, 6]: Yes | inhibition at 0.02 µM [2, 7]: 154%

O=C(c1cc(O)c(O)c([N+](=O)[O-])c1)c1ccccc1F [Compound R-108]
Is Hit [2, 3]: Yes | F Ratio [2, 4]: 0.1164 | inhibition at 0.02 µM [2, 5]: 69.6%

O=c1c(O)c(-c2ccc(O)c(O)c2)oc2cc(O)cc(O)c12 [Q 0125]
Is Hit [2, 3]: Yes | F Ratio [2, 4]: 0.1424 | inhibition at 0.02 µM [2, 5]: 52%

C(=N\c1ccc(/N=C/c2ccccn2)cc1)/c1ccccc1 [Compound 5491977]
IC50 [1]: 4.4 µM and 4.39 µM | Bcl-B H Coefficient [2]: 1.819

COc1ccc(OC)c(C=NNC(=O)C2C=CN(CC(=O)c3ccccc3)C=C2)c1 [Compound 5483976]
IC50 [1]: 1.35 µM and 1.34 µM | Bcl-B H Coefficient [2]: 2.127

O=C(O)c1cnc2c(ccc3ncc(C(=O)O)c(O)c32)c1O [Compound 128884]
F Ratio [2, 6]: 0.205 | Is Hit [2, 6]: Yes | inhibition at 0.02 µM [2, 7]: 55.3%

O=C(O)C1Nc2c(cccc2[N+](=O)[O-])C2C=CCC12 (stereo not drawn) [Compound 5665283]
IC50 [1]: 1.2 µM | Bcl-B H Coefficient [2]: 1.829

N=C1C(O)C2(I)c3ccccc3N3C(=N)C(O)C4c5ccccc5N1C4C32 (stereo not drawn) [Compound 118176]
F Ratio [2, 6]: 0.5128 | Is Hit [2, 6]: Yes | inhibition at 0.02 µM [2, 7]: 62.3%

N=C1C=CC(=C(c2ccc(N)cc2)c2ccc(N)cc2)C=C1 [Compound 10460]
F Ratio [2, 6]: 0.1378 | Is Hit [2, 6]: Yes | inhibition at 0.02 µM [2, 7]: 81.7%

CCSc1nc(NN)c2c3c(sc2n1)CN(C)CC3 [Compound 5683054]
IC50 [1]: 7.43 µM | Bcl-B H Coefficient [2]: 1.332

O=C1c2c(O)ccc(O)c2C(=O)c2c(NCCNCCO)ccc(NCCNCCO)c21 [M 6545]
Is Hit [2, 3]: Yes | F Ratio [2, 4]: 1.1021 | inhibition at 0.02 µM [2, 5]: 148%

Nc1nc(N)c(/N=N/c2ccc(C(=O)O)c(O)c2)c(N)n1 [Compound 117285]
F Ratio [2, 6]: 0.2954 | Is Hit [2, 6]: Yes | inhibition at 0.02 µM [2, 7]: 59.9%

COC(=O)C1=C(C)N(C)C(=O)NC1c1cc2c(cc1[N+](=O)[O-])OCO2 (stereo not drawn) [Compound 5607960]
IC50 [1]: 17.4 µM | Bcl-B H Coefficient [2]: 1.821
